ChEMBL document CHEMBL3414511, “Synthesis of a novel class of substituted benzothiophene or benzofuran derivatives as BMP-2 up-regulators and evaluation of the BMP-2-up-regulating effects in vitro and the effects on glucocorticoid-induced osteoporosis in rats” (Eur J Med Chem, 2015)
The source made the active and inactive calls. The calls are words filed in the database; no cut-off is given here.

Assays:
[1] = system: Rattus norvegicus; experiment: Toxicity in glucocorticoid-induced Wistar rat osteoporosis model assessed as white blood cells at 30 mg/kg/day, po administered six times a week for 3 months (reference value: 6.28 +/- 2.78 x 10^9/L); format: organism-based; parameters: route oral; settings: in vivo
[2] = system: Rattus norvegicus; experiment: Toxicity in glucocorticoid-induced Wistar rat osteoporosis model assessed as effect on red blood cell distribution width at 30 mg/kg/day, po administered six times a week for 3 months; format: organism-based; parameters: route oral; settings: in vivo
[3] = system: Rattus norvegicus; experiment: Toxicity in glucocorticoid-induced Wistar rat osteoporosis model assessed as effect on total bilirubin level at 30 mg/kg/day, po administered six times a week for 3 months; format: organism-based; parameters: route oral; settings: in vivo
[4] = system: Rattus norvegicus; experiment: Antiosteoporotic activity in glucocorticoid-induced Wistar rat osteoporosis model assessed as densed trabecula at 30 mg/kg/day, po administered six times a week for 3 months by toluidine blue staining-based light microscopic analysis relative to dexamethasone; format: functional, organism-based
[5] = system: Rattus norvegicus; experiment: Toxicity in glucocorticoid-induced Wistar rat osteoporosis model assessed as effect on red blood cells at 30 mg/kg/day, po administered six times a week for 3 months; format: organism-based; parameters: route oral; settings: in vivo
[6] = system: Rattus norvegicus; experiment: Toxicity in glucocorticoid-induced Wistar rat osteoporosis model assessed as effect on blood urea nitrogen level at 30 mg/kg/day, po administered six times a week for 3 months; format: organism-based; parameters: route oral; settings: in vivo
[7] = system: Rattus norvegicus; experiment: Toxicity in glucocorticoid-induced Wistar rat osteoporosis model assessed as effect on red blood cell specific volume at 30 mg/kg/day, po administered six times a week for 3 months; format: organism-based; parameters: route oral; settings: in vivo
[8] = system: Rattus norvegicus; experiment: Toxicity in glucocorticoid-induced Wistar rat osteoporosis model assessed as lymph level at 30 mg/kg/day, po administered six times a week for 3 months (reference value: 50.35 +/- 12.96%); format: organism-based; parameters: route oral; settings: in vivo
[9] = system: Rattus norvegicus; experiment: Antiosteoporotic activity in glucocorticoid-induced Wistar rat osteoporosis model assessed as trabecular bone volume at 30 mg/kg/day, po administered six times a week for 3 months by fluorescence assay (reference value: 33.09 +/- 5.15%); format: functional, Trabecula
[10] = system: Rattus norvegicus; experiment: Toxicity in glucocorticoid-induced Wistar rat osteoporosis model assessed as effect on mean corpuscular volume at 30 mg/kg/day, po administered six times a week for 3 months; format: organism-based; parameters: route oral; settings: in vivo
[11] = system: Rattus norvegicus; experiment: Toxicity in glucocorticoid-induced Wistar rat osteoporosis model assessed as effect on hemoglobin at 30 mg/kg/day, po administered six times a week for 3 months; format: organism-based; parameters: route oral; settings: in vivo
[12] = system: Mus musculus; experiment: Acute toxicity in Kunming mouse assessed as shiny fur at 700 mg/kg, po administered for 3 days measured during compound dosing and following 14 days; format: organism-based; parameters: dose 700 mg/kg, route oral; settings: in vivo, 336 h
[13] = system: Rattus norvegicus; experiment: Toxicity in glucocorticoid-induced Wistar rat osteoporosis model assessed as triglycerides level at 30 mg/kg/day, po administered six times a week for 3 months (reference value: 1.13 +/- 0.69 mmol/L); format: organism-based; parameters: route oral; settings: in vivo
[14] = system: Rattus norvegicus; experiment: Antiosteoporotic activity in glucocorticoid-induced Wistar rat osteoporosis model assessed as trabecula formation surface at 30 mg/kg/day, po administered six times a week for 3 months by fluorescence assay (reference value: 7.82 +/- 2.46%); format: functional
[15] = system: Rattus norvegicus; experiment: Toxicity in glucocorticoid-induced Wistar rat osteoporosis model assessed as aspartate transaminase level at 30 mg/kg/day, po administered six times a week for 3 months (reference value: 177.55 +/- 116.98 U/L); format: organism-based; parameters: route oral; settings: in vivo
[16] = system: Rattus norvegicus; experiment: Toxicity in glucocorticoid-induced Wistar rat osteoporosis model assessed as neutrophilic granulocytes level at 30 mg/kg/day, po administered six times a week for 3 months (reference value: 31.95 +/- 8.33%); format: organism-based; parameters: route oral; settings: in vivo
[17] = system: Mus musculus; experiment: Acute toxicity in Kunming mouse assessed as behavioral changes at 700 mg/kg, po administered for 3 days measured during compound dosing and following 14 days; format: organism-based; parameters: dose 700 mg/kg, route oral; settings: in vivo, 336 h
[18] = system: Rattus norvegicus; experiment: Antiosteoporotic activity in glucocorticoid-induced Wistar rat osteoporosis model assessed as trabecula resorption surface at 30 mg/kg/day, po administered six times a week for 3 months by fluorescence assay (reference value: 7.22 +/- 2.04%); format: functional
[19] = Acute toxicity in po dosed Kunming mouse administered for 3 days measured during compound dosing and following 14 days; format: organism-based; settings: in vivo
[20] = system: Rattus norvegicus; experiment: Toxicity in glucocorticoid-induced Wistar rat osteoporosis model assessed as effect on platelets at 30 mg/kg/day, po administered six times a week for 3 months; format: organism-based; parameters: route oral; settings: in vivo
[21] = system: Rattus norvegicus; experiment: Toxicity in glucocorticoid-induced Wistar rat osteoporosis model assessed as effect on creatinine level at 30 mg/kg/day, po administered six times a week for 3 months; format: organism-based; parameters: route oral; settings: in vivo
[22] = system: Rattus norvegicus; experiment: Toxicity in glucocorticoid-induced Wistar rat osteoporosis model assessed as effect on albumin level at 30 mg/kg/day, po administered six times a week for 3 months; format: organism-based; parameters: route oral; settings: in vivo
[23] = system: Rattus norvegicus; experiment: Toxicity in glucocorticoid-induced Wistar rat osteoporosis model assessed as alanine transaminase level at 30 mg/kg/day, po administered six times a week for 3 months (reference value: 43.73 +/- 36.21 U/L); format: organism-based; parameters: route oral; settings: in vivo
[24] = system: Rattus norvegicus; experiment: Antiosteoporotic activity in glucocorticoid-induced Wistar rat osteoporosis model assessed as mineral apposition rate at 30 mg/kg/day, po administered six times a week for 3 months by fluorescence assay (reference value: 1.06 +/- 0.27 micrometer/day); format: functional
[25] = Upregulation of BMP-2 expression in mouse MC3T3-E1 cells at 4 uM after 24 hrs by luciferase reporter gene assay relative to control; format: functional, cell-based
[26] = system: Rattus norvegicus; experiment: Toxicity in glucocorticoid-induced Wistar rat osteoporosis model assessed as effect on glucose level at 30 mg/kg/day, po administered six times a week for 3 months; format: organism-based; parameters: route oral; settings: in vivo
[27] = system: Rattus norvegicus; experiment: Toxicity in glucocorticoid-induced Wistar rat osteoporosis model assessed as effect on mean corpuscular hemoglobin concentration at 30 mg/kg/day, po administered six times a week for 3 months; format: organism-based; parameters: route oral; settings: in vivo
[28] = system: Rattus norvegicus; experiment: Toxicity in glucocorticoid-induced Wistar rat osteoporosis model assessed as effect on total protein level at 30 mg/kg/day, po administered six times a week for 3 months; format: organism-based; parameters: route oral; settings: in vivo
[29] = system: Rattus norvegicus; experiment: Antiosteoporotic activity in glucocorticoid-induced Wistar rat osteoporosis model appearance of turbulent and sparse rarefection of trabecula at 30 mg/kg/day, po administered six times a week for 3 months by toluidine blue staining-based light microscopic analysis; format: functional, organism-based

| Compound | Activity [1] [×10⁹ /L] | Activity [2] | Activity [3] | Activity [5] | Activity [6] | Activity [7] | Activity [8] [%] | Activity [9] [%] | Activity [10] | Activity [11] | Activity [13] [mmol/L] | Activity [14] [%] | Activity [15] [U/L] | Activity [16] [%] | Activity [18] [%] | Activity [20] | Activity [21] | Activity [22] | Activity [23] [U/L] | Activity [24] [micrometer/day] | also measured |
| --- | --- | --- | --- | --- | --- | --- | --- | --- | --- | --- | --- | --- | --- | --- | --- | --- | --- | --- | --- | --- | --- |
| COC(=O)c1ccc2cc(C(C)=O)sc2c1 | 4.52 | Non-toxic | Non-toxic | Non-toxic | Non-toxic | Non-toxic | 34.98 | 24.72 | Non-toxic | Non-toxic | 0.52 | 5.95 | 119.08 | 48.93 | 9.52 | Non-toxic | Non-toxic | Non-toxic | 31.55 | 0.99 | Activity [4]: Active; Activity [12]: Non-toxic; Activity [17]: Non-toxic; LD50 at 336 h [19]: > 700 mg/kg; Activity [25]: 85.2%; Activity [26]: Non-toxic; Activity [27]: Non-toxic; Activity [28]: Non-toxic |
| CC(=O)c1cc2ccc(C(=O)O)cc2s1 | 3.55 | Non-toxic | Non-toxic | Non-toxic | Non-toxic | Non-toxic | 35.72 | 20.5 | Non-toxic | Non-toxic | 0.53 | 4.61 | 123.33 | 47.16 | 10.9 | Non-toxic | Non-toxic | Non-toxic | 31.17 | 0.97 | Activity [29]: inactive; Activity [25]: 102%; Activity [26]: Non-toxic; Activity [27]: Non-toxic; Activity [28]: Non-toxic |
